In EP0271192A2, “Purine histamine H1 antagonists, their preparation and pharmaceutical compositions containing them” (AMERICAN HOME PRODUCTS CORPORATION, priority 1986, dated 1988):

Experiments:
H₁-receptor [1] = molecular target: T1, H₁-receptor (Cavia porcellus, UniProt P31389); test: Shift of the histamine dose-response curve in ileum tissue; assay type: cell-based, guinea pigs; settings: ileum tissues
T1 construct: Fresh segments of terminal ileum immediately proximal to Peyer's patch, obtained from male Buckshire guinea pigs; from tissue; host or cells: guinea pig terminal ileum segments
T1 sequence (P31389 whole entry): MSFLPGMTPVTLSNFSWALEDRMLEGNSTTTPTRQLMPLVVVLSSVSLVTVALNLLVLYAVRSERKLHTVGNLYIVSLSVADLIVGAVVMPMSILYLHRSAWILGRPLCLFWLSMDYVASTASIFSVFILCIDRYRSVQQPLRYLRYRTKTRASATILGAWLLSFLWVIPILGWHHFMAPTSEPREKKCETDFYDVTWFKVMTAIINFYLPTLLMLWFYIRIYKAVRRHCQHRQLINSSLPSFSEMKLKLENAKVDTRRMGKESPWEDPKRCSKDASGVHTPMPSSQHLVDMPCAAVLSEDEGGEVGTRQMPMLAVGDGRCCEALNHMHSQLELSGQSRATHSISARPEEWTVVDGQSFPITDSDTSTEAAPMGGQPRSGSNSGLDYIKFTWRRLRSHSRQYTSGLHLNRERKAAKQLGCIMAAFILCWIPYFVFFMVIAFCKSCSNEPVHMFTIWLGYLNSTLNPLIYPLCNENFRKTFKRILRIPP

[2] = tested on: histamine-induced death in guinea pigs; test: Protection against histamine-induced death after oral pretreatment; assay type: in vivo
H₁-receptor [3] = molecular target: T1, H₁-receptor; test: Reduction of histamine-induced contraction of isolated guinea pig ileum; assay type: cell-based, guinea pigs; settings: test drug 1 × 10⁻⁷M in the presence of histamine 1 × 10⁻⁶M; guinea pig terminal ileum; quadruplicate sets of tissues; read-out: percent reduction in tissue contraction
Experimental: The compounds of this invention were established to be histamine H₁-antagonists by subjecting them to the following standard test procedures for H₁-blocking activity:
Fresh segments of terminal ileum immediately proximal to Peyer's patch, obtained from male Buckshire guinea pigs, were suspended in 37°C Tyrode's solution in a tissue bath and aerated. The tissue segments were placed under one gram tension and allowed to equilibrate for one hour. Histamine was added to each tissue bath to a final concentration of 1 × 10⁻⁶M. The contraction response after it equilibrated was noted as grams tension. Test drug was added, in the presence of histamine, to each bath to a final concentration of 1 × 10⁻⁷M. The change in grams tension was noted and the percent reduction in grams tension calculated.

Row | Structure (SMILES) | Kb (H₁-receptor [1]; calculated via formula from the dose-response curve shift at 10⁻⁸M compound, read-out: histamine H₁antagonist potency) | shift of histamine dose-response curve (H₁-receptor [1]; compound at 10⁻⁸M) | Percent Survival ([2]; 0.5 mg/kg p.o., 18 Hours pretreatment, Trial5) | Percent Survival ([2]; 0.5 mg/kg p.o., 18 Hours pretreatment, Trial 6) | Percent Survival ([2]; 1.0 mg/kg p.o., 1 Hour pretreatment, Trial 1) | Percent Survival ([2]; 1.0 mg/kg p.o., 1 Hour pretreatment, Trial 2) | Percent Survival ([2]; 1.0 mg/kg p.o., 1 Hour pretreatment, Trial 3) | Percent Survival ([2]; 1.0 mg/kg p.o., 2 Hours pretreatment, Trial 3) | Percent Survival ([2]; 1.0 mg/kg p.o., 2 Hours pretreatment, Trial 4) | Percent Survival ([2]; 1.0 mg/kg p.o., 18 Hours pretreatment, Trial5) | Percent Survival ([2]; 5.0 mg/kg p.o., 1 Hour pretreatment, Trial 1) | Percent Survival ([2]; 10.0 mg/kg p.o., 2 Hours pretreatment, Trial 4) | inhibition at 0.1 µM (H₁-receptor [3])
1 | Cn1c(=O)c2c(ncn2CCCN2CCC(OC(c3ccccc3)c3ccccc3)CC2)n(C)c1=O [Example 1, 7-[3-(4-Diphenylmethoxy)-1-piperidinyl]propyl-3,7-dihydro-1,3-dimethyl-1H-purine-2,6-dione] | 0.29 nM | marked, parallel shift of the curve to the right | 70% | 40% | 40% | 10% | 40% | 70% | 70% | 80% | 80% | 60% | 92%
2 | Cn1c(=O)c2c(ncn2CCN2CCC(OC(c3ccc(F)cc3)c3ccc(F)cc3)CC2)n(C)c1=O [Example 4, 7-[2-[4-Bis(4-fluorophenyl)methoxy]-1-piperidinyl]ethyl-3,7-dihydro-1,3-dimethyl-1H-purine-2,6-dione] |  |  |  |  |  |  |  |  |  |  |  |  | 62%
